As usually defined, the IC50 is the concentration needed to halve the response being measured.

The target of the assay is Recombinant human KIF18A (1-467 His-tagged) protein (Homo sapiens (Human), UniProt Q8NI77). As to the kind of experiment: KIF18A Enzyme Assay: microtubule-stimulated ATPase activity (ADP-Glo). The conditions noted are these: read-out: KIF18A ATPase IC50; 30 nM KIF18A, 30 μg/mL pig microtubules, ATP at Km 75 μM, ADP-Glo luminescence. (In ADP-Glo the light output rises with the ADP produced.)
Recombinant human KIF18A (1-467 His-tagged) protein, sequence (Q8NI77 1-467): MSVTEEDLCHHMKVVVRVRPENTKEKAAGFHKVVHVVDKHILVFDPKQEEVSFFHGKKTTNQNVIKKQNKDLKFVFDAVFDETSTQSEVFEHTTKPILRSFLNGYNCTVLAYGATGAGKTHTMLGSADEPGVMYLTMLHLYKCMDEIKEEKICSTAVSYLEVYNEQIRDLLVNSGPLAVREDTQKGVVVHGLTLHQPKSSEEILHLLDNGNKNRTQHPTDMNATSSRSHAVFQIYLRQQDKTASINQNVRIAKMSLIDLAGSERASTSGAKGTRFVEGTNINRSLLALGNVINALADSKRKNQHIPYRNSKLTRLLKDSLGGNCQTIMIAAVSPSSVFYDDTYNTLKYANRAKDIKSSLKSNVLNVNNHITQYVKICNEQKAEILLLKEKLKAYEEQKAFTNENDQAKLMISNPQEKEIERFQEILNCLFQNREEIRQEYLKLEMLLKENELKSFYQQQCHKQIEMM
Recombinant human KIF18A (1-467 His-tagged) protein, sequence (P02550 whole entry partner): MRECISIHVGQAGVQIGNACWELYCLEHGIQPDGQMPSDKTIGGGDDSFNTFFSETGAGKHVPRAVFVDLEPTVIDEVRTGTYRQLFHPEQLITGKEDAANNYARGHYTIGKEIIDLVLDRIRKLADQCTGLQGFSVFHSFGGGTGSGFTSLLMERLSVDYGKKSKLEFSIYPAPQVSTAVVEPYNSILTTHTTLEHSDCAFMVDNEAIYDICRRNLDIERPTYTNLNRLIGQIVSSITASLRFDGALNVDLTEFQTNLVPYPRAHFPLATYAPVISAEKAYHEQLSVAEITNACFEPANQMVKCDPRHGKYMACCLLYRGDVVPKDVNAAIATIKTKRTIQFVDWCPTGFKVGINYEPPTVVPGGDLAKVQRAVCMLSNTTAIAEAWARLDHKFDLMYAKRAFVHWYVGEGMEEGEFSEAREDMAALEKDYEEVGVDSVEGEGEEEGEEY
Recombinant human KIF18A (1-467 His-tagged) protein, sequence (P02554 whole entry partner): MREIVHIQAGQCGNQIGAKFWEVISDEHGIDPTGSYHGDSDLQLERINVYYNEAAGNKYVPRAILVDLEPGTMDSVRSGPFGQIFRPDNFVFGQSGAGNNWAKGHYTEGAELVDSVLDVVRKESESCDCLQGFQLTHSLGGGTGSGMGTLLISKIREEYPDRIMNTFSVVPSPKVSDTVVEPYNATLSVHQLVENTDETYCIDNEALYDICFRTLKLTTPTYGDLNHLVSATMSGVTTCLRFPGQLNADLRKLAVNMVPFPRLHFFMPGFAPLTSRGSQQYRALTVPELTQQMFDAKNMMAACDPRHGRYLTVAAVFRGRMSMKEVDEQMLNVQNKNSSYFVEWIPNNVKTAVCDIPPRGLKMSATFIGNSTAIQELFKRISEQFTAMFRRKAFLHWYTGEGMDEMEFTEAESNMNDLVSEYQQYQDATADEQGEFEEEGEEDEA
Description: KIF18A Enzyme Assay: Microtubule-stimulated ATPase activity assay is used to measure KIF18A enzyme activity after treatment with compound. Compounds were 2-fold serially diluted in DMSO (Sigma Inc) over 22-point concentration range. […] The assay measures ADP formed from the ATPase reaction.
Turning to `Cc1cc(NC(=O)c2ccc(NS(=O)(=O)C(C)C)cc2N2CCC3(CC2)CC3)nc(N2CCC(F)(F)CC2)n1` [Example 6-22, N-(2-(4,4-Difluoropiperidin-1-yl)-6-methylpyrimidin-4-yl)-4-((1-methylethyl)sulfonamido)-2-(6-azaspiro[2.5]octan-6-yl)benzamide], the concentration for half-maximal inhibition (IC50) came out at 0.151 µM. Consider `Cc1cc(NC(=O)c2ccc(NS(=O)(=O)[C@@H](C)CO)cc2N2CCC3(CC2)CC3)nc(N2CCO[C@H](C)C2)n1` [Example 6-23-1, 4-(((S)-2-Hydroxy-1-methylethyl)sulfonamido)-N-(6-methyl-2-((R)-2-methylmorpholino)pyrimidin-4-yl)-2-(6-azaspiro[2.5]octan-6-yl)benzamide], for which the half-inhibitory concentration (IC50) was 0.039 µM.

Turning to `Cc1cc(NC(=O)c2ccc(NS(=O)(=O)[C@H](C)CO)cc2N2CCC3(CC2)CC3)nc(N2CCO[C@H](C)C2)n1` [Example 6-23-2, 4-(((R)-2-Hydroxy-1-methylethyl)sulfonamido)-N-(6-methyl-2-((R)-2-methylmorpholino)pyrimidin-4-yl)-2-(6-azaspiro[2.5]octan-6-yl)benzamide], the IC50 is 0.0373 µM.

As to `C[C@@H]1CN(c2nccc(NC(=O)c3ccc(NS(=O)(=O)[C@@H](C)CO)cc3N3CCC4(CC3)CC4)n2)CCO1` [Example 6-24-1, 4-(((S)-2-Hydroxy-1-methylethyl)sulfonamido)-N-(2-((R)-2-methylmorpholino)pyrimidin-4-yl)-2-(6-azaspiro[2.5]octan-6-yl)benzamide], the concentration for half-maximal inhibition (IC50) was found to be 0.0174 µM. In the case of `C[C@@H]1CN(c2nccc(NC(=O)c3ccc(NS(=O)(=O)[C@H](C)CO)cc3N3CCC4(CC3)CC4)n2)CCO1` [Example 6-24-2, 4-(((R)-2-hydroxy-1-methylethyl)sulfonamido)-N-(2-((R)-2-methylmorpholino)pyrimidin-4-yl)-2-(6-azaspiro[2.5]octan-6-yl)benzamide] it was 0.028 µM; in that of `Cc1cc(NC(=O)c2ccc(NS(=O)(=O)[C@@H](C)CO)cc2N2CCC3(CC2)CC3)nc(N2CCC(F)CC2)n1` [Example 6-25-1, (S)-N-(2-(4-fluoropiperidin-1-yl)-6-methylpyrimidin-4-yl)-4-((2-hydroxy-1-methylethyl)sulfonamido)-2-(6-azaspiro[2.5]octan-6-yl)benzamide], 0.047 µM; in that of `Cc1cc(NC(=O)c2ccc(NS(=O)(=O)[C@H](C)CO)cc2N2CCC3(CC2)CC3)nc(N2CCC(F)CC2)n1` [Example 6-25-2, (R)-N-(2-(4-Fluoropiperidin-1-yl)-6-methylpyrimidin-4-yl)-4-((2-hydroxy-1-methylethyl)sulfonamido)-2-(6-azaspiro[2.5]octan-6-yl)benzamide], 0.041 µM. With `C[C@@H](CO)S(=O)(=O)Nc1ccc(C(=O)Nc2ccnc(N3CCC(F)(F)CC3)n2)c(N2CCC3(CC2)CC3)c1` [Example 6-26-1, (S)-N-(2-(4,4-Difluoropiperidin-1-yl)pyrimidin-4-yl)-4-((2-hydroxy-1-methylethyl)sulfonamido)-2-(6-azaspiro[2.5]octan-6-yl)benzamide] the figure was 0.031 µM; with `C[C@H](CO)S(=O)(=O)Nc1ccc(C(=O)Nc2ccnc(N3CCC(F)(F)CC3)n2)c(N2CCC3(CC2)CC3)c1` [Example 6-26-2, (R)-N-(2-(4,4-Difluoropiperidin-1-yl)pyrimidin-4-yl)-4-((2-hydroxy-1-methylethyl)sulfonamido)-2-(6-azaspiro[2.5]octan-6-yl)benzamide], 0.021 µM; with `Cc1cc(NC(=O)c2ccc(NS(=O)(=O)C[C@@H](C)O)cc2N2CCC3(CC2)CC3)nc(N2CCO[C@H](C)C2)n1` [Example 6-27-1, 4-(((R)-2-Hydroxypropoyl)sulfonamido)-N-(6-methyl-2-((R)-2-methylmorpholino)pyrimidin-4-yl)-2-(6-azaspiro[2.5]octan-6-yl)benzamide], 0.162 µM. With `Cc1cc(NC(=O)c2ccc(NS(=O)(=O)C[C@@H](C)O)cc2N2CCC3(CC2)CC3)nc(OCCC(F)(F)F)n1` [Example 6-28-1, (R)-4-((2-Hydroxypropyl)sulfonamido)-N-(6-methyl-2-(3,3,3-trifluoropropoxy)pyrimidin-4-yl)-2-(6-azaspiro[2.5]octan-6-yl)benzamide] the figure was 0.068 µM; with `Cc1cc(NC(=O)c2ccc(NS(=O)(=O)C[C@H](C)O)cc2N2CCC3(CC2)CC3)nc(OCCC(F)(F)F)n1` [Example 6-28-2, (S)-4-((2-Hydroxypropyl)sulfonamido)-N-(6-methyl-2-(3,3,3-trifluoropropoxy)pyrimidin-4-yl)-2-(6-azaspiro[2.5]octan-6-yl)benzamide], 0.071 µM; with `O=C(Nc1ccnc(N2CCC(F)(F)CC2)c1)c1ccc(NS(=O)(=O)CCO)cc1N1CCC2(CC1)CC2` [Example 6-29, N-(2-(4,4-Difluoropiperidin-1-yl)pyridin-4-yl)-4-((2-hydroxyethyl)sulfonamido)-2-(6-azaspiro[2.5]octan-6-yl)benzamide], 0.017 µM. Take `Cc1cc(NC(=O)c2ccc(NS(=O)(=O)CCO)cc2N2CCC3(CC2)CC3)cc(N2CCC(F)(F)CC2)n1` [Example 6-30, N-(2-(4,4-Difluoropiperidin-1-yl)-6-methylpyridin-4-yl)-4-((2-hydroxyethyl)sulfonamido)-2-(6-azaspiro[2.5]octan-6-yl)benzamide]: the IC50 worked out at 0.0384 µM. In the case of `Cc1cc(NC(=O)c2ccc(NS(=O)(=O)C3([C@@H](C)O)CC3)cc2N2CCC3(CC2)CC3)nc(N2CCC(F)(F)CC2)n1` [Example 6-31-1, (R)-N-(2-(4,4-Difluoropiperidin-1-yl)-6-methylpyrimidin-4-yl)-4-((1-(1-hydroxyethyl)cyclopropane)-1-sulfonamido)-2-(6-azaspiro[2.5]octan-6-yl)benzamide] it was 0.324 µM. Take `Cc1cc(NC(=O)c2ccc(NS(=O)(=O)C3([C@H](C)O)CC3)cc2N2CCC3(CC2)CC3)nc(N2CCC(F)(F)CC2)n1` [Example 6-31-2, (S)-N-(2-(4,4-Difluoropiperidin-1-yl)-6-methylpyrimidin-4-yl)-4-((1-(1-hydroxyethyl)cyclopropane)-1-sulfonamido)-2-(6-azaspiro[2.5]octan-6-yl)benzamide]: the IC50 was determined as 0.281 µM. With `Cc1cc(NC(=O)c2ccc(NS(=O)(=O)C[C@@H](C)O)cc2N2CCC3(CC2)CC3)nc(N2CCC(F)(F)CC2)n1` [Example 6-32-1, (R)-N-(2-(4,4-Difluoropiperidin-1-yl)-6-methylpyrimidin-4-yl)-4-((2-hydroxypropyl)sulfonamido)-2-(6-azaspiro[2.5]octan-6-yl)benzamide], the IC50 came to 0.112 µM.

Regarding `Cc1cc(NC(=O)c2ccc(NS(=O)(=O)C[C@H](C)O)cc2N2CCC3(CC2)CC3)nc(N2CCC(F)(F)CC2)n1` [Example 6-32-2, (S)-N-(2-(4,4-Difluoropiperidin-1-yl)-6-methylpyrimidin-4-yl)-4-((2-hydroxypropyl)sulfonamido)-2-(6-azaspiro[2.5]octan-6-yl)benzamide], the IC50 was 0.141 µM. In the case of `C[C@H](O)CS(=O)(=O)Nc1ccc(C(=O)Nc2ccnc(N3CCO[C@H](C)C3)n2)c(N2CCC3(CC2)CC3)c1` [Example 6-33-1, 4-(((S)-2-Hydroxypropyl)sulfonamido)-N-(2-((R)-2-methylmorpholino)pyrimidin-4-yl)-2-(6-azaspiro[2.5]octan-6-yl)benzamide] it was 0.115 µM.

(Values after US11236069B2, “KIF18A inhibitors” (AMGEN INC., priority 2018, dated 2022).)
